According to patent publication US12077503B2, “Substituted cyclic amides and their use as herbicides” (FMC CORPORATION, priority 2015, dated 2024):

Columns and labels:
Format in all cases: in vivo
[1] = tested on: barnyardgrass (Echinochloa crus-galli); assay: Test G Pre-Emergence Protocol; settings: Echinochloa crus-galli, pre-emergence, 312 h, evaluated after 13 days; for pest or weed control at 15.625 g/ha: 15.625 g ai/ha; for pest or weed control at 15.625 g/ha / pest or weed control at 250 g/ha: read-out: Barnyardgrass damage rating (100=total damage to plant; 0=no damage to plant); for pest or weed control at 62.5 g/ha: 62.5 g ai/ha, 100=total damage to plant, 0=no damage to plant, read-out: Barnyardgrass damage rating; for pest or weed control at 250 g/ha: 250 g ai/ha
Outline: (§1)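 Scores are visual damage ratings from 0 (no damage) to 100 (total plant kill), taken 13 days after treatment. Compound was sprayed one day post-sowing at 15.625, 62.5 or 250 g/ha in 50:50 acetone/water with 0.5% Tween 20.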

[2] = tested on: ivy-leaved morning glory (Ipomoea hederacea); assay: Test G Pre-Emergence Protocol; settings: Ipomoea, pre-emergence, 312 h, evaluated after 13 days; for pest or weed control at 15.625 g/ha: 15.625 g ai/ha; for pest or weed control at 15.625 g/ha / pest or weed control at 250 g/ha: read-out: Morningglory, Ivy-leaved damage rating (100=total damage to plant; 0=no damage to plant); for pest or weed control at 62.5 g/ha: 62.5 g ai/ha, 100=total damage to plant, 0=no damage to plant, read-out: Morningglory, Ivy-leaved damage rating; for pest or weed control at 250 g/ha: 250 g ai/ha
Outline: as §1

[3] = tested on: redroot pigweed (Amaranthus retroflexus); assay: Test G Pre-Emergence Protocol; settings: Amaranthus retroflexus, pre-emergence, 312 h, evaluated after 13 days; for pest or weed control at 15.625 g/ha: 15.625 g ai/ha; for pest or weed control at 15.625 g/ha / pest or weed control at 250 g/ha: read-out: Pigweed, Redroot damage rating (100=total damage to plant; 0=no damage to plant); for pest or weed control at 62.5 g/ha: 62.5 g ai/ha, 100=total damage to plant, 0=no damage to plant, read-out: Pigweed, Redroot damage rating; for pest or weed control at 250 g/ha: 250 g ai/ha
Outline: as §1

[4] = tested on: velvetleaf (Abutilon theophrasti); assay: Test G Pre-Emergence Protocol; settings: Abutilon theophrasti, pre-emergence, 312 h, evaluated after 13 days; for pest or weed control at 15.625 g/ha: 15.625 g ai/ha; for pest or weed control at 15.625 g/ha / pest or weed control at 250 g/ha: read-out: Velvetleaf damage rating (100=total damage to plant; 0=no damage to plant); for pest or weed control at 62.5 g/ha: 62.5 g ai/ha, 100=total damage to plant, 0=no damage to plant, read-out: Velvetleaf damage rating; for pest or weed control at 250 g/ha: 250 g ai/ha
Outline: as §1

[5] = tested on: giant foxtail (Setaria faberi); assay: Test G Pre-Emergence Protocol; settings: Setaria faberi, pre-emergence, 312 h, evaluated after 13 days; for pest or weed control at 15.625 g/ha: 15.625 g ai/ha; for pest or weed control at 15.625 g/ha / pest or weed control at 250 g/ha: read-out: Foxtail, Giant damage rating (100=total damage to plant; 0=no damage to plant); for pest or weed control at 62.5 g/ha: 62.5 g ai/ha, 100=total damage to plant, 0=no damage to plant, read-out: Foxtail, Giant damage rating; for pest or weed control at 250 g/ha: 250 g ai/ha
Outline: as §1

corn (Zea mays) [6] = assay: Test G Pre-Emergence Protocol; settings: Zea mays, pre-emergence, 312 h, evaluated after 13 days; for plant injury at 15.625 g/ha: 15.625 g ai/ha; for plant injury at 15.625 g/ha / plant injury at 250 g/ha: read-out: Corn damage rating (100=total damage to plant; 0=no damage to plant); for plant injury at 62.5 g/ha: 62.5 g ai/ha, 100=total damage to plant, 0=no damage to plant, read-out: Corn damage rating; for plant injury at 250 g/ha: 250 g ai/ha
Outline: as §1

[7] = tested on: barnyardgrass (Echinochloa crus-galli); assay: Test G Post-Emergence Protocol; settings: Echinochloa crus-galli, post-emergence, 312 h, read-out: Barnyardgrass damage rating; for pest or weed control at 15.625 g/ha: 15.625 g ai/ha, evaluated after 13 days (100=total damage to plant; 0=no damage to plant); for pest or weed control at 62.5 g/ha: 62.5 g ai/ha; for pest or weed control at 62.5 g/ha / pest or weed control at 250 g/ha: evaluated after 13 days, 100=total damage to plant, 0=no damage to plant; for pest or weed control at 250 g/ha: 250 g ai/ha
Outline: (§2)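 Foliar application was made 8 days after sowing, using an aqueous spray of the active in acetone/water (50:50) with 0.5% Tween 20, at doses of 15.625, 62.5 or 250 g/ha. Injury was assessed 13 days later, where 100 meant the plant was fully damaged.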

[8] = tested on: ivy-leaved morning glory (Ipomoea hederacea); assay: Test G Post-Emergence Protocol; settings: Ipomoea, post-emergence, 312 h, read-out: Morningglory, Ivy-leaved damage rating; for pest or weed control at 15.625 g/ha: 15.625 g ai/ha, evaluated after 13 days (100=total damage to plant; 0=no damage to plant); for pest or weed control at 62.5 g/ha: 62.5 g ai/ha; for pest or weed control at 62.5 g/ha / pest or weed control at 250 g/ha: evaluated after 13 days, 100=total damage to plant, 0=no damage to plant; for pest or weed control at 250 g/ha: 250 g ai/ha
Outline: as §2

[9] = tested on: redroot pigweed (Amaranthus retroflexus); assay: Test G Post-Emergence Protocol; settings: Amaranthus retroflexus, post-emergence, 312 h, read-out: Pigweed, Redroot damage rating; for pest or weed control at 15.625 g/ha: 15.625 g ai/ha, evaluated after 13 days (100=total damage to plant; 0=no damage to plant); for pest or weed control at 62.5 g/ha: 62.5 g ai/ha; for pest or weed control at 62.5 g/ha / pest or weed control at 250 g/ha: evaluated after 13 days, 100=total damage to plant, 0=no damage to plant; for pest or weed control at 250 g/ha: 250 g ai/ha
Outline: as §2

[10] = tested on: velvetleaf (Abutilon theophrasti); assay: Test G Post-Emergence Protocol; settings: Abutilon theophrasti, post-emergence, 312 h, read-out: Velvetleaf damage rating; for pest or weed control at 15.625 g/ha: 15.625 g ai/ha, evaluated after 13 days (100=total damage to plant; 0=no damage to plant); for pest or weed control at 62.5 g/ha: 62.5 g ai/ha; for pest or weed control at 62.5 g/ha / pest or weed control at 250 g/ha: evaluated after 13 days, 100=total damage to plant, 0=no damage to plant; for pest or weed control at 250 g/ha: 250 g ai/ha
Outline: as §2

[11] = tested on: giant foxtail (Setaria faberi); assay: Test G Post-Emergence Protocol; settings: Setaria faberi, post-emergence, 312 h, read-out: Foxtail, Giant damage rating; for pest or weed control at 15.625 g/ha: 15.625 g ai/ha, evaluated after 13 days (100=total damage to plant; 0=no damage to plant); for pest or weed control at 62.5 g/ha: 62.5 g ai/ha; for pest or weed control at 62.5 g/ha / pest or weed control at 250 g/ha: evaluated after 13 days, 100=total damage to plant, 0=no damage to plant; for pest or weed control at 250 g/ha: 250 g ai/ha
Outline: as §2

corn (Zea mays) [12] = assay: Test G Post-Emergence Protocol; settings: Zea mays, post-emergence, 312 h, read-out: Corn damage rating; for plant injury at 15.625 g/ha: 15.625 g ai/ha, evaluated after 13 days (100=total damage to plant; 0=no damage to plant); for plant injury at 62.5 g/ha: 62.5 g ai/ha; for plant injury at 62.5 g/ha / plant injury at 250 g/ha: evaluated after 13 days, 100=total damage to plant, 0=no damage to plant; for plant injury at 250 g/ha: 250 g ai/ha
Outline: as §2

## CN1C[C@@H](c2cccc(C(F)(F)F)c2)[C@H](C(=O)Nc2cccc(F)n2)C1=O [Compound 1817]
[1]
  pest or weed control at 15.625 g/ha: 0%
  pest or weed control at 62.5 g/ha: 0%
  pest or weed control at 250 g/ha: 0%
[2]
  pest or weed control at 15.625 g/ha: 0%
  pest or weed control at 62.5 g/ha: 0%
  pest or weed control at 250 g/ha: 0%
[3]
  pest or weed control at 15.625 g/ha: 0%
  pest or weed control at 62.5 g/ha: 0%
  pest or weed control at 250 g/ha: 0%
[4]
  pest or weed control at 15.625 g/ha: 0%
  pest or weed control at 62.5 g/ha: 0%
  pest or weed control at 250 g/ha: 0%
[5]
  pest or weed control at 15.625 g/ha: 0%
  pest or weed control at 62.5 g/ha: 0%
  pest or weed control at 250 g/ha: 10%
Corn (Zea mays) [6]
  plant injury at 15.625 g/ha: 0%
  plant injury at 62.5 g/ha: 0%
  plant injury at 250 g/ha: 0%
[7]
  pest or weed control at 15.625 g/ha: 0%
  pest or weed control at 62.5 g/ha: 0%
  pest or weed control at 250 g/ha: 0%
[8]
  pest or weed control at 15.625 g/ha: 0%
  pest or weed control at 62.5 g/ha: 0%
  pest or weed control at 250 g/ha: 0%
[9]
  pest or weed control at 15.625 g/ha: 0%
  pest or weed control at 62.5 g/ha: 0%
  pest or weed control at 250 g/ha: 0%
[10]
  pest or weed control at 15.625 g/ha: 0%
  pest or weed control at 62.5 g/ha: 0%
  pest or weed control at 250 g/ha: 0%
[11]
  pest or weed control at 15.625 g/ha: 0%
  pest or weed control at 62.5 g/ha: 0%
  pest or weed control at 250 g/ha: 0%
Corn (Zea mays) [12]
  plant injury at 15.625 g/ha: 0%
  plant injury at 62.5 g/ha: 0%
  plant injury at 250 g/ha: 0%

## CN1C[C@@H](c2cccc(C(F)(F)F)c2)[C@H](C(=O)Nc2cccnc2F)C1=O [Compound 1823]
[1]
  pest or weed control at 15.625 g/ha: 0%
  pest or weed control at 62.5 g/ha: 0%
  pest or weed control at 250 g/ha: 0%
[2]
  pest or weed control at 15.625 g/ha: 0%
  pest or weed control at 62.5 g/ha: 0%
  pest or weed control at 250 g/ha: 0%
[3]
  pest or weed control at 15.625 g/ha: 0%
  pest or weed control at 62.5 g/ha: 0%
  pest or weed control at 250 g/ha: 0%
[4]
  pest or weed control at 15.625 g/ha: 0%
  pest or weed control at 62.5 g/ha: 0%
  pest or weed control at 250 g/ha: 0%
[5]
  pest or weed control at 15.625 g/ha: 0%
  pest or weed control at 62.5 g/ha: 0%
  pest or weed control at 250 g/ha: 0%
Corn (Zea mays) [6]
  plant injury at 15.625 g/ha: 0%
  plant injury at 62.5 g/ha: 0%
  plant injury at 250 g/ha: 0%
[7]
  pest or weed control at 15.625 g/ha: 0%
  pest or weed control at 62.5 g/ha: 0%
  pest or weed control at 250 g/ha: 0%
[8]
  pest or weed control at 15.625 g/ha: 0%
  pest or weed control at 62.5 g/ha: 0%
  pest or weed control at 250 g/ha: 0%
[9]
  pest or weed control at 15.625 g/ha: 0%
  pest or weed control at 62.5 g/ha: 0%
  pest or weed control at 250 g/ha: 0%
[10]
  pest or weed control at 15.625 g/ha: 0%
  pest or weed control at 62.5 g/ha: 0%
  pest or weed control at 250 g/ha: 0%
[11]
  pest or weed control at 15.625 g/ha: 0%
  pest or weed control at 62.5 g/ha: 0%
  pest or weed control at 250 g/ha: 0%
Corn (Zea mays) [12]
  plant injury at 15.625 g/ha: 0%
  plant injury at 62.5 g/ha: 0%
  plant injury at 250 g/ha: 0%
